# System: arachidonic acid-induced pulmonary embolism
# Test: Inhibiting effect on arachidonic acid-induced pulmonary embolism (in vivo)
# Settings: Mus musculus, 3 h; oral administration in aqueous CMC to fasted ddY-male mice; arachidonic acid (125 mg/10ml/kg) into tail vein three hours later; dose required to induce at least 15 % decrease in recovery time of locomotive activity vs control; read-out: Minimum effective dose
# Protocol: [Inhibiting effect on arachidonic acid-induced pulmonary embolism (in vivo)]
# An aqueous carboxymethylcellulose (hereinafter referred to as "CMC") solution containing a test compound (20 ml/kg) was orally administered to ddY-male mice (8 mice per group) fasted overnight.
row,SMILES,minimal effective dose [mg/kg]
1,CC(Cc1ccc(NCC(=O)O)cc1)NS(=O)(=O)c1ccc(Cl)cc1 (stereo not shown) [Example 2],1
2,CC(CNS(=O)(=O)c1ccc(Cl)cc1)c1ccc(NCC(=O)NCCC(=O)O)cc1 (stereo not shown) [Example 3],1
3,CC(CNS(=O)(=O)c1ccc(Cl)cc1)c1ccc(NCC(=O)NCCCC(=O)O)cc1 (stereo not shown) [Example 4],3
4,"O=C([O-])CNc1ccc(CCNS(=O)(=O)c2ccccc2)cc1.[Na+] [Known compound, Sodium N-[4-(2-benzenesulfonylaminoethyl)phenyl]glycinate, reference compound]",10

# Reference: patent EP0375557A1, “Glycine derivative process for preparation thereof, and pharmaceutical composition containing it” (TANABE SEIYAKU CO., LTD., priority 1988, dated 1990)
